Reference: US8420675B2, “Aminotetrahydroindazoloacetic acids” (Hoffmann-La Roche Inc., priority 2008, dated 2013)

Target: T1, human CRTH2 (Homo sapiens, UniProt Q9Y5Y4)
T1 construct: expressed in transfected cells
T1 sequence (Q9Y5Y4 1-395): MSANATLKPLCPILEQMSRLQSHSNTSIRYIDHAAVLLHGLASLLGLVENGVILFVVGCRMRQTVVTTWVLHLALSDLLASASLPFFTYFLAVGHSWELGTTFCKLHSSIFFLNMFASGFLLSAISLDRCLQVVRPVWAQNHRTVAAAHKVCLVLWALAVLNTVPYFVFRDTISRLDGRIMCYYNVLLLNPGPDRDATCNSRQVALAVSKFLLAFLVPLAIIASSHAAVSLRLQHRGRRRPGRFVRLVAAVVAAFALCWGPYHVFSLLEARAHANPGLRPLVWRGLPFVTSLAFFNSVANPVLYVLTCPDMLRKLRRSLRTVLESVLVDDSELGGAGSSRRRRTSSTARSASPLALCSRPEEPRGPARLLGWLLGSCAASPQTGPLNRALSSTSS
Assay: Human CRTH2 Receptor Binding Assay (whole cell, [3H]ramatroban competition)
Settings: CHO-K1 cells expressing human CRTH2 and G-alpha16; 20 nM [3H]ramatroban; 1 hour, room temperature
Procedure, shortened: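 CHO-K1 cells stably co-expressing human CRTH2 and G-alpha16, 1.5×10^5 per reaction, incubated 1 hour at room temperature with 20 nM [3H]ramatroban in PBS containing 10 mM MgCl2 and 0.06% BSA. Non-specific binding defined with 10 μM 15(R)-15-methyl PGD2. IC50 from 7 concentrations by 4-parameter logistic fit of specific binding inhibition.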

| IC50 [nM] | SMILES |
| --- | --- |
| 13.4 | Cc1ccc(Cl)c(Oc2ccc(S(=O)(=O)N(C)[C@@H]3CCCc4c3cnn4CC(=O)O)cc2Cl)c1 [Example 9-18a, ((R)-4-{[3-Chloro-4-(2-chloro-5-methyl-phenoxy)-benzenesulfonyl]-methyl-amino}-4,5,6,7-tetrahydro-indazol-1-yl)-acetic acid] |
| 11.4 | Cc1ccc(Oc2ccc(S(=O)(=O)N(C)[C@@H]3CCCc4c3cnn4CC(=O)O)cc2Cl)c(C)c1 [Example 9-19a, ((R)-4-{[3-Chloro-4-(2,4-dimethyl-phenoxy)-benzenesulfonyl]-methyl-amino}-4,5,6,7-tetrahydro-indazol-1-yl)-acetic acid] |
| 10.2 | COc1cc(Cl)ccc1Oc1ccc(S(=O)(=O)N(C)[C@@H]2CCCc3c2cnn3CC(=O)O)cc1Cl [Example 9-20a, ((R)-4-{[3-Chloro-4-(4-chloro-2-methoxy-phenoxy)-benzenesulfonyl]-methyl-amino}-4,5,6,7-tetrahydro-indazol-1-yl)-acetic acid] |
| 13.2 | CN([C@@H]1CCCc2c1cnn2CC(=O)O)S(=O)(=O)c1ccc(Oc2ccc(Cl)c(F)c2)c(Cl)c1 [Example 9-21a, ((R)-4-{[3-Chloro-4-(4-chloro-3-fluoro-phenoxy)-benzenesulfonyl]-methyl-amino}-4,5,6,7-tetrahydro-indazol-1-yl)-acetic acid] |
| 24.2 | CN([C@@H]1CCCc2c1cnn2CC(=O)O)S(=O)(=O)c1ccc(Oc2cc(F)ccc2F)c(Cl)c1 [Example 9-22a, ((R)-4-{[3-Chloro-4-(2,5-difluoro-phenoxy)-benzenesulfonyl]-methyl-amino}-4,5,6,7-tetrahydro-indazol-1-yl)-acetic acid] |
| 6.7 | CN([C@@H]1CCCc2c1cnn2CC(=O)O)S(=O)(=O)c1ccc(Oc2ccc(Br)cc2)c(Cl)c1 [Example 9-23a, ((R)-4-{[4-(4-Bromo-phenoxy)-3-chloro-benzenesulfonyl]-methyl-amino}-4,5,6,7-tetrahydro-indazol-1-yl)-acetic acid] |
| 16.5 | CN([C@@H]1CCCc2c1cnn2CC(=O)O)S(=O)(=O)c1ccc(Oc2ccc(F)c(Cl)c2)c(Cl)c1 [Example 9-24a, ((R)-4-{[3-Chloro-4-(3-chloro-4-fluoro-phenoxy)-benzenesulfonyl]-methyl-amino}-4,5,6,7-tetrahydro-indazol-1-yl)-acetic acid] |
| 20.9 | CN([C@@H]1CCCc2c1cnn2CC(=O)O)S(=O)(=O)c1ccc(Oc2ccc(S(C)(=O)=O)cc2)c(Cl)c1 [Example 9-25a, ((R)-4-{[3-Chloro-4-(4-methanesulfonyl-phenoxy)-benzenesulfonyl]-methyl-amino}-4,5,6,7-tetrahydro-indazol-1-yl)-acetic acid] |
| 23.7 | Cc1ccccc1Oc1ccc(S(=O)(=O)N(C)[C@@H]2CCCc3c2cnn3CC(=O)O)cc1Cl [Example 9-26a, {(R)-4-[(3-Chloro-4-o-tolyloxy-benzenesulfonyl)-methyl-amino]-4,5,6,7-tetrahydro-indazol-1-yl}-acetic acid] |
| 49.1 | CC(=O)Nc1ccc(Oc2ccc(S(=O)(=O)N(C)[C@@H]3CCCc4c3cnn4CC(=O)O)cc2Cl)cc1 [Example 9-27a, ((R)-4-{[4-(4-Acetylamino-phenoxy)-3-chloro-benzenesulfonyl]-methyl-amino}-4,5,6,7-tetrahydro-indazol-1-yl)-acetic acid] |
| 11.8 | CN([C@@H]1CCCc2c1cnn2CC(=O)O)S(=O)(=O)c1ccc(Oc2ccc(OC(F)(F)F)cc2)c(Cl)c1 [Example 9-28a, ((R)-4-{[3-Chloro-4-(4-trifluoromethoxy-phenoxy)-benzenesulfonyl]-methyl-amino}-4,5,6,7-tetrahydro-indazol-1-yl)-acetic acid] |
| 151 | CN([C@@H]1CCCc2c1cnn2CC(=O)O)S(=O)(=O)c1cc(F)c(Oc2ccc(F)cc2)cc1Cl [Example 9-29a, ((R)-4-{[2-Chloro-5-fluoro-4-(4-fluoro-phenoxy)-benzenesulfonyl]-methyl-amino}-4,5,6,7-tetrahydro-indazol-1-yl)-acetic acid] |
| 37.7 | CN([C@@H]1CCCc2c1cnn2CC(=O)O)S(=O)(=O)c1cc(Cl)c(Oc2ccc(F)cc2)cc1F [Example 9-30a, ((R)-4-{[5-Chloro-2-fluoro-4-(4-fluoro-phenoxy)-benzenesulfonyl]-methyl-amino}-4,5,6,7-tetrahydro-indazol-1-yl)-acetic acid] |
| 6.8 | COc1ccc(Oc2ccc(S(=O)(=O)N(C)[C@@H]3CCCc4c3cnn4CC(=O)O)cc2Cl)cc1 [Example 9-31a, ((R)-4-{[3-Chloro-4-(4-methoxy-phenoxy)-benzenesulfonyl]-methyl-amino}-4,5,6,7-tetrahydro-indazol-1-yl)-acetic acid] |
| 7.6 | CN([C@@H]1CCCc2c1cnn2CC(=O)O)S(=O)(=O)c1ccc(Oc2ccc(F)cc2F)c(Cl)c1 [Example 9-32a, ((R)-4-{[3-Chloro-4-(2,4-difluoro-phenoxy)-benzenesulfonyl]-methyl-amino}-4,5,6,7-tetrahydro-indazol-1-yl)-acetic acid] |
| 10.6 | CN([C@@H]1CCCc2c1cnn2CC(=O)O)S(=O)(=O)c1ccc(Oc2c(F)cccc2F)c(Cl)c1 [Example 9-33a, ((R)-4-{[3-Chloro-4-(2,6-difluoro-phenoxy)-benzenesulfonyl]-methyl-amino}-4,5,6,7-tetrahydro-indazol-1-yl)-acetic acid] |
| 4.6 | CN([C@@H]1CCCc2c1cnn2CC(=O)O)S(=O)(=O)c1ccc(Oc2ccc(C#N)cc2)c(Cl)c1 [Example 9-34a, ((R)-4-{[3-Chloro-4-(4-cyano-phenoxy)-benzenesulfonyl]-methyl-amino}-4,5,6,7-tetrahydro-indazol-1-yl)-acetic acid] |
| 17.1 | Cc1cc(S(=O)(=O)N(C)[C@@H]2CCCc3c2cnn3CC(=O)O)ccc1Oc1ccc(F)cc1 [Example 9-35a, ((R)-4-{[4-(4-Fluoro-phenoxy)-3-methyl-benzenesulfonyl]-methyl-amino}-4,5,6,7-tetrahydro-indazol-1-yl)-acetic acid] |
| 23.1 | CN([C@@H]1CCCc2c1cnn2CC(=O)O)S(=O)(=O)c1ccc(Oc2ccc(C(N)=O)cc2)c(Cl)c1 [Example 9-36a, ((R)-4-{[4-(4-Carbamoyl-phenoxy)-3-chloro-benzenesulfonyl]-methyl-amino}-4,5,6,7-tetrahydro-indazol-1-yl)-acetic acid] |
| 14.8 | CN([C@@H]1CCCc2c1cnn2CC(=O)O)S(=O)(=O)c1ccc(Oc2ccccc2F)c(Cl)c1 [Example 9-37a, ((R)-4-{[3-Chloro-4-(2-fluoro-phenoxy)-benzenesulfonyl]-methyl-amino}-4,5,6,7-tetrahydro-indazol-1-yl)-acetic acid] |
| 8 | Cc1cc(F)ccc1Oc1ccc(S(=O)(=O)N(C)[C@@H]2CCCc3c2cnn3CC(=O)O)cc1Cl [Example 9-38a, ((R)-4-{[3-Chloro-4-(4-fluoro-2-methyl-phenoxy)-benzenesulfonyl]-methyl-amino}-4,5,6,7-tetrahydro-indazol-1-yl)-acetic acid] |
| 10.4 | CN([C@@H]1CCCc2c1cnn2CC(=O)O)S(=O)(=O)c1cc(F)c(Oc2ccc(F)cc2)c(F)c1 [Example 9-39a, ((R)-4-{[3,5-Difluoro-4-(4-fluoro-phenoxy)-benzenesulfonyl]-methyl-amino}-4,5,6,7-tetrahydro-indazol-1-yl)-acetic acid] |
| 7.9 | CN([C@@H]1CCCc2c1cnn2CC(=O)O)S(=O)(=O)c1ccc(Oc2ccc(F)cc2)c(Br)c1 [Example 9-40a, ((R)-4-{[3-Bromo-4-(4-fluoro-phenoxy)-benzenesulfonyl]-methyl-amino}-4,5,6,7-tetrahydro-indazol-1-yl)-acetic acid] |
| 7.5 | CN([C@@H]1CCCc2c1cnn2CC(=O)O)S(=O)(=O)c1ccc(Oc2ccc(F)cc2)c(C(F)(F)F)c1 [Example 9-41a, ((R)-4-{[4-(4-Fluoro-phenoxy)-3-trifluoromethyl-benzenesulfonyl]-methyl-amino}-4,5,6,7-tetrahydro-indazol-1-yl)-acetic acid] |
| 22.6 | CN([C@@H]1CCCc2c1cnn2CC(=O)O)S(=O)(=O)c1cc(Oc2ccc(F)cc2)cc(C(F)(F)F)c1 [Example 9-42a, ((R)-4-{[3-(4-Fluoro-phenoxy)-5-trifluoromethyl-benzenesulfonyl]-methyl-amino}-4,5,6,7-tetrahydro-indazol-1-yl)-acetic acid] |
| 215 | COc1ccc(-c2ccc(S(=O)(=O)NC3CCCc4c3cnn4CC(=O)O)cc2)cc1 (centres unmarked) [Example 10-1a, [4-(4′-Methoxy-biphenyl-4-sulfonylamino)-4,5,6,7-tetrahydro-indazol-1-yl]-acetic acid] |
| 371 | O=C(O)Cn1ncc2c1CCCC2NS(=O)(=O)c1ccc(-c2cccnc2)cc1 (centres unmarked) [Example 10-2a, [4-(4-Pyridin-3-yl-benzenesulfonylamino)-4,5,6,7-tetrahydro-indazol-1-yl]-acetic acid] |
| 194 | CCOc1ccc(-c2ccc(S(=O)(=O)NC3CCCc4c3cnn4CC(=O)O)cc2)cc1 (centres unmarked) [Example 10-3a, [4-(4′-Ethoxy-biphenyl-4-sulfonylamino)-4,5,6,7-tetrahydro-indazol-1-yl]-acetic acid] |
| 257 | O=C(O)Cn1ncc2c1CCCC2NS(=O)(=O)c1ccc(-c2ccccc2Cl)cc1 (centres unmarked) [Example 10-4a, [4-(2′-Chloro-biphenyl-4-sulfonylamino)-4,5,6,7-tetrahydro-indazol-1-yl]-acetic acid] |
